In US20240360113A1, “AMINOARYL-INTEGRIN AGONISTS COMPOUNDS” (Texas Heart Institute, priority 2021, published 2024):

Key:
αLβ2/ICAM-1 = biological target: T1, αLβ2/ICAM-1 (Homo sapiens, UniProt P05107+P20701); assay: Static cell adhesion assay, HSB cells on ICAM-1 (LFA-1; LAD); assay type: cell-based; settings: RFU of compound / RFU of THI0349, both at the same concentration
T1 construct: The Jurkat (VCAM-1 assays) and HSB (ICAM-1 assays) cell lines were obtained from American Type Culture Collection; endogenous in cells; host or cells: HSB (ATCC)
Procedure: (§1) For in vitro cell adhesion assays, compounds were dissolved in DMSO to make a series of stock solutions such that a 1:100 dilution in assay buffer would yield the desired final working concentrations in 1% DMSO (vehicle). Human VCAM-1 and ICAM-1 were purchased from R&D Systems (Minneapolis, MN). The Jurkat (VCAM-1 assays) and HSB (ICAM-1 assays) cell lines were obtained from American Type Culture Collection (Manassas, VA) and were maintained in recommended culture media.
(§2) Assays were performed as previously described in Vanderslice et al., (2010), Biochem Biophys Res Commun 400, 619-624; and Vanderslice et al., (2013) J Biol Chem 288, 19414-19428. VCAM-1 or ICAM-1 ligand in 50 μL of 50 mM Tris-HCl (pH 7.4), 150 mM NaCl, (TBS) was added to wells of a 96-well plate and allowed to coat overnight at 4° C. To maximize the window to evaluate agonist activity, a sub-optimal coating concentration of ligand was used, typically 0.5 and 5 μg/mL in 50 μL TBS for VCAM-1 and ICAM-1 respectively. This ligand concentration corresponded approximately to that which would yield <5% adhesion as determined by dose-response curves. Briefly, 2×10^6 cells were labeled for 30 minutes with calcein-AM (Molecular Probes), washed, resuspended in binding buffer, and added to triplicate wells of ligand-coated plates (2×10^5 cells/well) that had been blocked with 2% BSA. After a 30-minute incubation at 37° C., the plates were washed 3 times with binding buffer, the adherent cells were lysed, and fluorescence was measured on a Tecan Safire^2 plate reader. The binding buffer was PBS with 1 mM MgCl2, 50% FBS for α4β1/VCAM-1 assays and PBS with 2 mM MgCl2, 5 mM EGTA, 50% FBS for αLβ2/ICAM-1 assays. EC50 is defined as the concentration of compound required to achieve 50% of the maximal response.
In relation to LAD (Leukocyte Adhesion Deficiency), LFA-1 ratios are determined by dividing the relative fluorescence units (RFU) of each compound at a concentration of 3 μM over that of the reference standard of THI0349, also at 3 μM, (RFU Compound/RFU of THI0349). Log Ps were calculated by either Chemdraw® version 12 (CambridgeSoft) or ACD/Chemsketch® (ACD/Labs).

α4β1/VCAM-1 = biological target: T2, α4β1/VCAM-1 (Homo sapiens, UniProt P05556+P13612); assay: Static cell adhesion assay, Jurkat cells on VCAM-1 (VLA-4 agonist activity); assay type: cell-based; settings: EC50 relative to THI0349 (average 11 uM) run on the same plate; Jurkat cells, 50% FBS
T2 construct: The Jurkat (VCAM-1 assays) and HSB (ICAM-1 assays) cell lines were obtained from American Type Culture Collection; endogenous in cells; host or cells: Jurkat (ATCC)
Procedure: as §1, §2

T1 sequence (P20701 26-1170): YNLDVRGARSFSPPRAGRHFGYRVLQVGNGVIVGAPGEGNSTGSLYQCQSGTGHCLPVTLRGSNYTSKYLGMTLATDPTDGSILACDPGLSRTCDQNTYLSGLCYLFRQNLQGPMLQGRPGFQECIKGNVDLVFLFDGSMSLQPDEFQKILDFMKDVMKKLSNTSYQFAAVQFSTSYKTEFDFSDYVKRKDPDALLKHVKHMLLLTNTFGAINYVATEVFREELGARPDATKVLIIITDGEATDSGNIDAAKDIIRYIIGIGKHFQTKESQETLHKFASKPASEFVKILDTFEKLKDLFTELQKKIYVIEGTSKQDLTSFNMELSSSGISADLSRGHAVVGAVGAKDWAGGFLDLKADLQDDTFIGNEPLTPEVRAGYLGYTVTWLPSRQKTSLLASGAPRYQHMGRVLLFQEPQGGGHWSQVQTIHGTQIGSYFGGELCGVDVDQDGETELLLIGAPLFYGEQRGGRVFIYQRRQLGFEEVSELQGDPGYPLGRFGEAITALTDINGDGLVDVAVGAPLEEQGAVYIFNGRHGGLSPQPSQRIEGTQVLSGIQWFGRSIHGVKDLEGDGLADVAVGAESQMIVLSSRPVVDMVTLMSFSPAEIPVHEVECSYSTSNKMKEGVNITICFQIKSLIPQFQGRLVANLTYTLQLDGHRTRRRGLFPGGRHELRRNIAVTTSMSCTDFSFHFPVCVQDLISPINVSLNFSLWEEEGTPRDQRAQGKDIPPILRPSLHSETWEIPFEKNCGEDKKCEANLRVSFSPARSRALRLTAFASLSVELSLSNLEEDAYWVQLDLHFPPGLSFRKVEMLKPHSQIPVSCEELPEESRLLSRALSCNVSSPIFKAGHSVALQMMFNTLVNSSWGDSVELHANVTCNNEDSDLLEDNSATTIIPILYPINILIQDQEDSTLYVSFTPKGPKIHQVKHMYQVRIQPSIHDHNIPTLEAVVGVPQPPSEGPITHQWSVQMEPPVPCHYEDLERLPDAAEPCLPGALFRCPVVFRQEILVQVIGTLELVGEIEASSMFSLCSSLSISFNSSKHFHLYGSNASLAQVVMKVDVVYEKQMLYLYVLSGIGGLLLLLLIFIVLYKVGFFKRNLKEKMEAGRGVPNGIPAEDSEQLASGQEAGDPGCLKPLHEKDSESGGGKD
T1 sequence (P05107 23-769): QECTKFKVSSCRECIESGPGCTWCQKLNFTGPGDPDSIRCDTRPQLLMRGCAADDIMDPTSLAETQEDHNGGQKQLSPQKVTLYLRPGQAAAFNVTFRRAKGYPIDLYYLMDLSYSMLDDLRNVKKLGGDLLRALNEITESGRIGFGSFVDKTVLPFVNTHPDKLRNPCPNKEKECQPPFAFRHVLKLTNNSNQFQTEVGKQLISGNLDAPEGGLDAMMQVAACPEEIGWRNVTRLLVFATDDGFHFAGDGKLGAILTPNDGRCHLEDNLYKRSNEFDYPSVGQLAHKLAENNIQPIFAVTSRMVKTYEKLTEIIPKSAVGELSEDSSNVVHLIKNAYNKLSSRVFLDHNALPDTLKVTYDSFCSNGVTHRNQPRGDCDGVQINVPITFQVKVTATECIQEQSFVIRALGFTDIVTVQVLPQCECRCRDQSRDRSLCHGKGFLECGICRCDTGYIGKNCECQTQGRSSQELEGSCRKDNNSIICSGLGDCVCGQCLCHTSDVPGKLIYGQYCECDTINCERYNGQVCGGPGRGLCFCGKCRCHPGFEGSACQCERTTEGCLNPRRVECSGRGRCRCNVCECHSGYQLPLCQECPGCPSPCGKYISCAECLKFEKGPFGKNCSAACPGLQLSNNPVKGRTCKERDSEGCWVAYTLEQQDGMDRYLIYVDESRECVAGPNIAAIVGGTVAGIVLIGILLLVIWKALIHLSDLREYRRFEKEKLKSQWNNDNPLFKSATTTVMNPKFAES
T2 sequence (P13612 34-1032): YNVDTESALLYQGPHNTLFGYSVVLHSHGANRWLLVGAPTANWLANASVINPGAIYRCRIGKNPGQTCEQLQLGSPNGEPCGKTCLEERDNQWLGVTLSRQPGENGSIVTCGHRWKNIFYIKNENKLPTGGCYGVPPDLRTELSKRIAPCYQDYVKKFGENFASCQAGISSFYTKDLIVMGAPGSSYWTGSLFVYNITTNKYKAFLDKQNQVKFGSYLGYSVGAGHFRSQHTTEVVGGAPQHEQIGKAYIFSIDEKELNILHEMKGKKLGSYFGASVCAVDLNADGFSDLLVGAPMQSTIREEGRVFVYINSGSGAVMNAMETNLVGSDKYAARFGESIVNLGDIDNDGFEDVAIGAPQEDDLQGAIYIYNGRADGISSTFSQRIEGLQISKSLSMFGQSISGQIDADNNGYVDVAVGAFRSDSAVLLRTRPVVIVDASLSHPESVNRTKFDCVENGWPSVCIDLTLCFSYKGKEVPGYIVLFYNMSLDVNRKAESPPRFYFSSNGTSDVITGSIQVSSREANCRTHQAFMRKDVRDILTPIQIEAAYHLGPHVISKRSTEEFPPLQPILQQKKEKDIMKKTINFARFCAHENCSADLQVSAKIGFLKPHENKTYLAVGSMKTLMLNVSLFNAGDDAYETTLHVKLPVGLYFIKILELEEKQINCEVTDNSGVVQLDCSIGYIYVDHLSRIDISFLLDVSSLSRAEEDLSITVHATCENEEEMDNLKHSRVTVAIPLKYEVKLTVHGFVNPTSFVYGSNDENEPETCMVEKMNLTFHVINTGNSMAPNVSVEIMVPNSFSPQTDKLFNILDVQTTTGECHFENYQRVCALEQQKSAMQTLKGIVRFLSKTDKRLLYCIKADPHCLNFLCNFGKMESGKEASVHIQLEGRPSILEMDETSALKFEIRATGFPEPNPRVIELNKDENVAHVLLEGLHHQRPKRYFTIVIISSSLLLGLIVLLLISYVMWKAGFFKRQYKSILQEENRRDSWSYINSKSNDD
T2 sequence (P05556 21-798): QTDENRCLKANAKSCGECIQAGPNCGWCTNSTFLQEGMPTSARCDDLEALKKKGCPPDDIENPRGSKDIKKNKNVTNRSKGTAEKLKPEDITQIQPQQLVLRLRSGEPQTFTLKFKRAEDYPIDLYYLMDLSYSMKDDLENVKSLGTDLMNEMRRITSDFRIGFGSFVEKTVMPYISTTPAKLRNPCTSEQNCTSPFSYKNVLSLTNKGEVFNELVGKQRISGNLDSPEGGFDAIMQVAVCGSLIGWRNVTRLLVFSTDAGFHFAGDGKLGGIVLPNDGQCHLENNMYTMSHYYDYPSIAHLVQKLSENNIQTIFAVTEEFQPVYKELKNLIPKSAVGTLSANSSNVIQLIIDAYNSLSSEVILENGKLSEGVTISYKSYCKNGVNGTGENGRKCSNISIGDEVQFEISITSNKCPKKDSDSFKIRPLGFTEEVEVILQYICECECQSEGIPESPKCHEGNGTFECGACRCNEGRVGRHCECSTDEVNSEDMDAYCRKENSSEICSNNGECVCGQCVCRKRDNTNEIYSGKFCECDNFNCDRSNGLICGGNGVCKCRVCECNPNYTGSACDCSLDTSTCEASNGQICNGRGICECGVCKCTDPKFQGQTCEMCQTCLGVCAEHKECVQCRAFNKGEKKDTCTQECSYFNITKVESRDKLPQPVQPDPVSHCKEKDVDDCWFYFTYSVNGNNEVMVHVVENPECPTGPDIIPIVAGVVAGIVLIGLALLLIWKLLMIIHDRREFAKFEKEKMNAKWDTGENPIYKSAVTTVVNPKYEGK

Structure (SMILES) | LAD Raw Fluorescence Units against LFA-1; Dose 3 µM; Ratio of raw counts Compound/THI0349 (αLβ2/ICAM-1) | Group against VCAM (α4β1/VCAM-1)
COc1cccc(CN(Cc2cccc(OC)c2)c2nc(COCCOCCOc3cccc(C#N)c3)cs2)c1 [Compound 45, 3-(2-(2-((2-(bis(3-methoxybenzyl)amino)thiazol-4-yl)methoxy)ethoxy)ethoxy)benzonitrile] | 0.76 | I (Group I maintains at least the same potency or better up to more than twice that of the EC50 of THI0349 ran on the same plate)
COc1cccc(CN(Cc2cccc(OC)c2)c2nc(COCCOc3ccccc3)cs2)c1 [Compound 52, N,N-bis(3-methoxybenzyl)-4-((2-phenoxyethoxy)methyl)thiazol-2-amine] | 1.2 | II (Group II is more than twice that of THI0349 but less than five times THI0349's EC50)
COc1cccc(CN(Cc2ccc(-n3cccn3)cc2)c2nc(CN3CCOCC3)cs2)c1 [Compound 75, N-(4-(1H-pyrazol-1-yl)benzyl)-N-(3-methoxybenzyl)-4-(morpholinomethyl)thiazol-2-amine] | 0.59 | I (Group I maintains at least the same potency or better up to more than twice that of the EC50 of THI0349 ran on the same plate)
COc1cccc(CN(Cc2cccc(OC)c2)c2nc(COCCN3CCCCC3)cs2)c1 [Compound 65, N,N-bis(3-methoxybenzyl)-4-((2-(piperidin-1-yl)ethoxy)methyl)thiazol-2-amine] | 0.29 | I (Group I maintains at least the same potency or better up to more than twice that of the EC50 of THI0349 ran on the same plate)
COc1cccc(CNC(=O)c2coc(N(Cc3cccc(OC)c3)Cc3cccc(OC)c3)n2)c1 [Compound 18, 2-(bis(3-methoxybenzyl)amino)-N-(3-methoxybenzyl)oxazole-4-carboxamide] | 0.17 | II (Group II is more than twice that of THI0349 but less than five times THI0349's EC50)
COc1cccc(CN(Cc2cccc(OC)c2)c2nc(COCCOCCOCc3ccccc3C)cs2)c1 [Compound 54, N,N-bis(3-methoxybenzyl)-4-((2-(2-((2-methylbenzyl)oxy)ethoxy)ethoxy)methyl)thiazol-2-amine] | 1.8 | I (Group I maintains at least the same potency or better up to more than twice that of the EC50 of THI0349 ran on the same plate)
COc1cccc(CN(Cc2cccc(OC)c2)c2nc(COCCOCCOc3cccc(N(C)C)c3)cs2)c1 [Compound 41, 4-((2-(2-(3-(dimethylamino)phenoxy)ethoxy)ethoxy)methyl)-N,N-bis(3-methoxybenzyl)thiazol-2-amine] | 1.3 | I (Group I maintains at least the same potency or better up to more than twice that of the EC50 of THI0349 ran on the same plate)
COc1cccc(CN(Cc2cccc(OC)c2)c2nc(COCCN3CCOCC3)cs2)c1 [Compound 64, N,N-bis(3-methoxybenzyl)-4-((2-morpholinoethoxy)methyl)thiazol-2-amine] | 0.31 | I (Group I maintains at least the same potency or better up to more than twice that of the EC50 of THI0349 ran on the same plate)
COc1cccc(CN(Cc2cccc(OC)c2)c2cnc(CCOc3ccccc3)o2)c1 [Compound 27, N,N-bis(3-methoxybenzyl)-2-(2-phenoxyethyl)oxazol-5-amine] | 0.28 | III (Group III more than five times the EC50 of THI0349)
CCOC(=O)c1coc(N(Cc2cccc(OCCOC)c2)Cc2cccc(OCCOC)c2)n1 [Compound 16, ethyl 2-(bis(3-(2-methoxyethoxy)benzyl)amino)oxazole-4-carboxylate] | 0.49 | II (Group II is more than twice that of THI0349 but less than five times THI0349's EC50)
COc1cccc(CN(Cc2cccc(OC)c2)c2nc(COCCOCCOc3cccc(OC)c3)cs2)c1 [Compound 42, N,N-bis(3-methoxybenzyl)-4-((2-(2-(3-methoxyphenoxy)ethoxy)ethoxy)methyl)thiazol-2-amine] | 1.6 | I (Group I maintains at least the same potency or better up to more than twice that of the EC50 of THI0349 ran on the same plate)
COc1cccc(CN(Cc2cccc(OC)c2)c2nc(COCCOc3ccc(Cl)cc3)cs2)c1 [Compound 49, 4-((2-(4-chlorophenoxy)ethoxy)methyl)-N,N-bis(3-methoxybenzyl)thiazol-2-amine] | 0.63 | II (Group II is more than twice that of THI0349 but less than five times THI0349's EC50)
COc1ccc(CCc2csc(N(Cc3cccc(OC)c3)Cc3cccc(OC)c3)n2)cc1 [Compound 71, N,N-bis(3-methoxybenzyl)-4-(4-methoxyphenethyl)thiazol-2-amine] | 0.1 | III (Group III more than five times the EC50 of THI0349)

More lines, main results first:

LAD Raw Fluorescence Units against LFA-1; Dose 3 µM; Ratio of raw counts Compound/THI0349 (αLβ2/ICAM-1) | Structure (SMILES) | Group against VCAM (α4β1/VCAM-1)
0.03 | COC(=O)c1nc(N(Cc2cccc(OC)c2)Cc2cccc(OC)c2)sc1C [Compound 101, methyl 2-(bis(3-methoxybenzyl)amino)-5-methylthiazole-4-carboxylate] | II (Group II is more than twice that of THI0349 but less than five times THI0349's EC50)
0.15 | CCOC(=O)c1csc(N(Cc2cccc(OC)c2)Cc2cccc(-n3ccnc3)c2)n1 [Compound 118, ethyl 2-((3-(1H-imidazol-1-yl)benzyl)(3-methoxybenzyl)amino)thiazole-4-carboxylate] | II (Group II is more than twice that of THI0349 but less than five times THI0349's EC50)
0.05 | COc1cccc(CN(Cc2cccc(OC)c2)c2nc(COCCN(C)C)cs2)c1 [Compound 82, 4-((2-(dimethylamino)ethoxy)methyl)-N,N-bis(3-methoxybenzyl)thiazol-2-amine] | II (Group II is more than twice that of THI0349 but less than five times THI0349's EC50)
0.08 | CCOC(=O)c1cnc(N(Cc2cccc(OC)c2)Cc2cccc(OC)c2)nc1 [Compound 96, ethyl 2-(bis(3-methoxybenzyl)amino)pyrimidine-5-carboxylate] | III (Group III more than five times the EC50 of THI0349)
0.29 | CCc1nnc(N(Cc2cccc(OC)c2)Cc2cccc(OC)c2)s1 [Compound 94, 5-ethyl-N,N-bis(3-methoxybenzyl)-1,3,4-thiadiazol-2-amine] | III (Group III more than five times the EC50 of THI0349)
0.32 | COc1cccc(CN(Cc2cccc(-n3ccnc3)c2)c2nc(CN3CCOCC3)cs2)c1 [Compound 79, N-(3-(1H-imidazol-1-yl)benzyl)-N-(3-methoxybenzyl)-4-(morpholinomethyl)thiazol-2-amine] | II (Group II is more than twice that of THI0349 but less than five times THI0349's EC50)
0.03 | CCOC(=O)c1ccc(N(Cc2cccc(OC)c2)Cc2cccc(OC)c2)cc1 [Compound 85, ethyl 4-(bis(3-methoxybenzyl)amino)benzoate] | III (Group III more than five times the EC50 of THI0349)
0.09 | CCOC(=O)c1csc(N(Cc2cccc(OC)c2)Cc2ccc3[nH]ncc3c2)n1 [Compound 116, ethyl 2-(((1H-indazol-5-yl)methyl)(3-methoxybenzyl)amino)thiazole-4-carboxylate] | III (Group III more than five times the EC50 of THI0349)
